Data as given in PMC4139061, “Structural basis of nucleoside and nucleoside drug selectivity by concentrative nucleoside transporters” (eLife, 2014).
Where “and” joins values, the source holds several entries; their conditions need not be identical. Equal entries are not always repeated.

Experiments:
[1] = target: T1, hCNT3 (Homo sapiens, UniProt Q9HAS3); test: two-electrode voltage-clamp of Na+ currents / total charge in Xenopus oocytes expressing hCNT3; type: cell-based
T1 sequence (Q9HAS3 1-691): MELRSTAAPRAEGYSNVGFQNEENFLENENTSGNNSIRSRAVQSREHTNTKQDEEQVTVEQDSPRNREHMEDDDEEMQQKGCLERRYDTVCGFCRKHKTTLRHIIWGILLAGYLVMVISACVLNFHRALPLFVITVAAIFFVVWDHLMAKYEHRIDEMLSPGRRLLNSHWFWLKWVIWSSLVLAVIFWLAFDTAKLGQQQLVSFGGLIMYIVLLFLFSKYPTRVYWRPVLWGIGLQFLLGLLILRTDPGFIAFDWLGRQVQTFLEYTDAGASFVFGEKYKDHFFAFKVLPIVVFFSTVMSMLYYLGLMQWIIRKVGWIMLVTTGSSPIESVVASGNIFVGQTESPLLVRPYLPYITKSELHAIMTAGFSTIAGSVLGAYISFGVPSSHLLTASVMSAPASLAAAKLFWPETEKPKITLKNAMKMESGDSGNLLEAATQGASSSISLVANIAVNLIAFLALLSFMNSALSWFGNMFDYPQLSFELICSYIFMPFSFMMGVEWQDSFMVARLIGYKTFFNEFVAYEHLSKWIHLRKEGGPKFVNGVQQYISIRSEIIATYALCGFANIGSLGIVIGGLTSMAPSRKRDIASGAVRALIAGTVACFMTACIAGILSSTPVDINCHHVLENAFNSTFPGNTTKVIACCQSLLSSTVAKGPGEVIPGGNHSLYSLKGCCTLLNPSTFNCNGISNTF
Description: (§1) To detect nucleoside transport by hCNTs, we turned to two-electrode voltage-clamp electrophysiological recording. Because hCNTs are Na^+-nucleoside symporters, one can measure the current generated by the Na^+ transport that is coupled with nucleoside transport. We injected Xenopus oocytes with mRNA coding for each of the hCNTs and measured inward Na^+ currents elicited by the addition of different nucleosides to the extracellular side.
(§2) The genes coding for the three hCNTs and vcCNT were cloned into a pGEM-HE vector. Plasmids were linearized using either SphI or NheI, and mRNA was transcribed using the mMESSAGE mMACHINE T7 Transcription Kit (Ambion, Grand Island, NY). Defolliculated Xenopus laevis oocytes were purchased from Ecocyte Bioscience (Austin, TX). Individual oocytes were injected with 40 ng of mRNA using a 10-μl microdispenser (Drummond Scientific, Broomall, PA) fitted with a tapered glass pipette tip and incubated at 17 °C for 4–5 days in ND96 buffer (96 mM NaCl, 2 mM KCl, 1 mM MgCl2, 1.8 mM CaCl2, and 5 mM HEPES pH 7.5) with 0.1% penicillin and streptomycin before recording.
The oocyte-recording chamber was gravity-perfused with ND96 buffer at a rate of 2 ml/min. Membrane currents were measured using an Oocyte Clamp (OC-725C; Warner Instruments, Hamden, CT). Individual oocytes were penetrated with two microelectrodes filled with 3 M KCl (0.5–1.0 MΩ). All electrophysiological experiments were conducted at room temperature. The OC-725C Oocyte Clamp was computer-interfaced via an Axon Digidata 1550 and controlled by Axoscope software (Molecular Devices, Sunnyvale, CA). The current signals were filtered at 20 Hz and sampled at intervals of 20 ms. The signals were filtered at 0.5 Hz by use of pCLAMP 10.4 software for data presentation. […] Cells were discarded if resting membrane potentials were unstable or more positive than −30 mV. Oocyte membrane potentials were clamped at −90 mV for holding potentials to measure transporter-generated currents. All data are shown as means ± SEM.

[2] = target: vcCNT (Vibrio cholerae, UniProt Q9KPL5); test: biochemical; type: binding; conditions: for mAnisotropy: [pyrrolo-gemcitabine] 2.00 μM
Chain of vcCNT (Q9KPL5 entry or part of it): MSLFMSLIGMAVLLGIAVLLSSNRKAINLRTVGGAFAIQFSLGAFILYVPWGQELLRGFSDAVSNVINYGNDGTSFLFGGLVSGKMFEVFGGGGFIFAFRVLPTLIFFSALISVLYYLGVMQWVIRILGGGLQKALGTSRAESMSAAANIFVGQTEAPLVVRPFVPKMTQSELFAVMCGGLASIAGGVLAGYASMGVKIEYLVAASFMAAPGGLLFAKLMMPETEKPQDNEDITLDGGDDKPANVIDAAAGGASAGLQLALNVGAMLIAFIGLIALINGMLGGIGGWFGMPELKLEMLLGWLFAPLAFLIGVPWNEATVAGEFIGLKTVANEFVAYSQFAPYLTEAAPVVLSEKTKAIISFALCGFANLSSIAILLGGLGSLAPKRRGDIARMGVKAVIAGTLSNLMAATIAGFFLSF

[3] = target: hCNT2 (Homo sapiens, UniProt O43868); test: two-electrode voltage-clamp of Na+ currents in Xenopus oocytes expressing hCNT2; type: cell-based; conditions: data not shown
Chain of hCNT2 (O43868 whole entry): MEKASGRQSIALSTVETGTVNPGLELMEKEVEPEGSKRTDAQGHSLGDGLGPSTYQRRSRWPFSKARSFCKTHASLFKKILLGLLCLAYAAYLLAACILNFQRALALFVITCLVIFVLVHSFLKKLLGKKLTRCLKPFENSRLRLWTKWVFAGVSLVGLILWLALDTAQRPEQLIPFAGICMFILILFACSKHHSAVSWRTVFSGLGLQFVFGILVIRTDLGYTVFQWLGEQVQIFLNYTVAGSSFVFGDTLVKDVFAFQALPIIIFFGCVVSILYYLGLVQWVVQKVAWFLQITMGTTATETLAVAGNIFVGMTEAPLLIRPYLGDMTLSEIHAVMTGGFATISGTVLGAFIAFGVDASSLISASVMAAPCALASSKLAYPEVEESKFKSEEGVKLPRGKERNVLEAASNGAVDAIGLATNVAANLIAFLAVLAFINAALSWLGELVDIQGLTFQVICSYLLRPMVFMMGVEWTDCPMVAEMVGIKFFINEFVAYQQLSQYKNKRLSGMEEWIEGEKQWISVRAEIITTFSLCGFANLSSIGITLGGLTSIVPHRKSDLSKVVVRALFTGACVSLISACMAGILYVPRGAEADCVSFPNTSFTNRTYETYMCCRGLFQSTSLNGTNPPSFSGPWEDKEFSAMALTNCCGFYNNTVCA
Description: as §1, §2
The oocyte-recording chamber was gravity-perfused with ND96 buffer at a rate of 2 ml/min. Membrane currents were measured using an Oocyte Clamp (OC-725C; Warner Instruments, Hamden, CT). Individual oocytes were penetrated with two microelectrodes filled with 3 M KCl (0.5–1.0 MΩ). […]

[4] = target: hCNT1 (353V/424L) (Homo sapiens, UniProt O00337, L353V/V424L); test: two-electrode voltage-clamp total charge in Xenopus oocytes expressing hCNT1 (353V/424L); type: cell-based; conditions: mean of Exp. 1-8
Chain of hCNT1 (353V/424L) (O00337 whole entry L353V/V424L, the tested form may be a part): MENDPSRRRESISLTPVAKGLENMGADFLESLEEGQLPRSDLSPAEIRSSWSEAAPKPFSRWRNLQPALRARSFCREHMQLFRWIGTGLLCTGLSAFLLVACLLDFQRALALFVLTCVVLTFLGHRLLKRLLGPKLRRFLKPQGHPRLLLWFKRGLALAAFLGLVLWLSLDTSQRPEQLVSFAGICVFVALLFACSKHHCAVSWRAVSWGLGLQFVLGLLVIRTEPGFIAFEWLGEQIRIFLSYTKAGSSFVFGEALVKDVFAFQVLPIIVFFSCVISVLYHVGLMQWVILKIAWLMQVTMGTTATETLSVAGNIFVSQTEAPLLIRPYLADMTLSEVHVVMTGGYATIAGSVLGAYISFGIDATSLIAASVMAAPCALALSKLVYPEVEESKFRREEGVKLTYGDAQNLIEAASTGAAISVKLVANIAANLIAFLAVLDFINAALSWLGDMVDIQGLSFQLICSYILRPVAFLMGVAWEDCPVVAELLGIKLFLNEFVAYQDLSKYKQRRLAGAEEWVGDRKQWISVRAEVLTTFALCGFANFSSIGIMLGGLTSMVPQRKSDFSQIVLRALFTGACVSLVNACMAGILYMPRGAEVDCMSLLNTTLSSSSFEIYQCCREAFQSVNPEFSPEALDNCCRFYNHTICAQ
Description: (§3) Figure 6. […] (A) Model of hCNT3 nucleo-pocket. […] (B) Model of hCNT1 nucleo-pocket. […] (C) Hypothetical alternating-access mechanism of vcCNT. A cartoon representation of the different conformational states along the transport cycle is depicted. The transport domain (including HP1, HP2, TM4b, and TM7b) and TM6 are shown as cylinders. […] The nucleo-pocket in the inward-occluded conformation (bottom right) is located between TM6 and TM4 and is marked with a green star. The inward-occluded conformation is derived from the crystal structures of vcCNT. All other conformations are purely hypothetical. The transition between inward- and outward-facing conformations has been proposed to be achieved by a rigid-body movement of the transport domain across TM6 ([Johnson et al., 2012]). Extracellular and intracellular gating likely involves slight rearrangements of HP2/TM4b and HP1/TM7b, respectively. […] See Figure 6—source data 1 for total charge source data. DOI: http://dx.doi.org/10.7554/eLife.03604.024 Figure 6—source data 1. Total charge data. Total charge transported (μC) was calculated as the area under the curve of the current trace after application of the indicated nucleoside to hCNT-expressing Xenopus oocytes. Each row represents a separate experiment done using a different oocyte. The ratios of the total charge transported for the nucleosides are shown in the last columns.
as §2
The oocyte-recording chamber was gravity-perfused with ND96 buffer at a rate of 2 ml/min. Membrane currents were measured using an Oocyte Clamp (OC-725C; Warner Instruments, Hamden, CT). Individual oocytes were penetrated with two microelectrodes filled with 3 M KCl (0.5–1.0 MΩ). All electrophysiological experiments were conducted at room temperature. The OC-725C Oocyte Clamp was computer-interfaced via an Axon Digidata 1550 and controlled by Axoscope software (Molecular Devices, Sunnyvale, CA). The current signals were filtered at 20 Hz and sampled at intervals of 20 ms.

[5] = target: hCNT3 (375L/446V) (Homo sapiens, UniProt Q9HAS3, L446V/V375L); test: two-electrode voltage-clamp total charge in Xenopus oocytes expressing hCNT3 (375L/446V); type: cell-based; conditions: mean of Exp. 1-11
Chain of hCNT3 (375L/446V) (Q9HAS3 whole entry V375L/L446V): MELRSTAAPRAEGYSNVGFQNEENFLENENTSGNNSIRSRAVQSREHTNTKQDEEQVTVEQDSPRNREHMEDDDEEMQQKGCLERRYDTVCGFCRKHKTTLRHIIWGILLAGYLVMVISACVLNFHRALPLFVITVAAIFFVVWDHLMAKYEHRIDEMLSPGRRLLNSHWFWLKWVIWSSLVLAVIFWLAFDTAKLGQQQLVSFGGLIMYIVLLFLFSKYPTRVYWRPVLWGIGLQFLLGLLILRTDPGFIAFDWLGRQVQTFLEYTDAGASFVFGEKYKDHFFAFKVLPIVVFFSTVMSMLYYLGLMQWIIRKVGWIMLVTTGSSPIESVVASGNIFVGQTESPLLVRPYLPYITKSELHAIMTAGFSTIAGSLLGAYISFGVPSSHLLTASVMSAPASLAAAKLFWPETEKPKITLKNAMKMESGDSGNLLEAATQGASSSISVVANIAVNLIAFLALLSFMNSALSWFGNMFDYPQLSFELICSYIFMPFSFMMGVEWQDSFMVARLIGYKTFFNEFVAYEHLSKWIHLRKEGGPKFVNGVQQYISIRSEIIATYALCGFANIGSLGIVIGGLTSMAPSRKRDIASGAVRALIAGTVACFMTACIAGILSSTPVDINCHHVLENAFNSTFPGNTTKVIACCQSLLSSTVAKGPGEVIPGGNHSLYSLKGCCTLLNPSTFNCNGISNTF
Description: In the paradigm of the alternating-access mechanism of sodium-coupled symporters ([Krishnamurthy et al., 2009]), substrate release is achieved by the transition from the inward-facing occluded to the inward-facing open state (Figure 6C).
as §3
The genes coding for the three hCNTs and vcCNT were cloned into a pGEM-HE vector. Plasmids were linearized using either SphI or NheI, and mRNA was transcribed using the mMESSAGE mMACHINE T7 Transcription Kit (Ambion, Grand Island, NY). […]
The oocyte-recording chamber was gravity-perfused with ND96 buffer at a rate of 2 ml/min. Membrane currents were measured using an Oocyte Clamp (OC-725C; Warner Instruments, Hamden, CT). […]

## Cc1cc2cn([C@@H]3O[C@H](CO)[C@@H](O)C3(F)F)c(=O)nc2[nH]1 [pyrrolo-gemcitabine]
[1]; 200 μM nucleoside, hCNT3-expressing Xenopus oocytes, mean of Exp. 1-14
  Total charge transported, Mean: 0.082 μC
[1]; hCNT3-expressing oocytes, 200 μM
  Na+ current on addition of nucleoside: almost no effect
[1]; ratio of total charge, 200 μM each, hCNT3, mean of Exp. 1-14
  Qgem/Qpyr-gem, Mean: 96.071
[2]; [vcCNT] 0 μM
  mAnisotropy: 44.1 and 33.7 and 35.1
[2]; [vcCNT] 1.0 μM
  mAnisotropy: 45.4 and 36.3 and 43.5
[2]; [vcCNT] 2.5 μM
  mAnisotropy: 55.8 and 48.4 and 48.8
[2]; [vcCNT] 5.0 μM
  mAnisotropy: 72.7 and 68.7 and 59.5
[2]; [vcCNT] 10 μM
  mAnisotropy: 92.3 and 80.0 and 79.5
[2]; [vcCNT] 25 μM
  mAnisotropy: 127.1 and 118.0 and 110.9
[2]; [vcCNT] 50 μM
  mAnisotropy: 153.7 and 139.6 and 136.3
[2]; [vcCNT] 100 μM
  mAnisotropy: 173.8 and 165.0
[2]; [vcCNT] 200 μM
  mAnisotropy: 187.8 and 174.6
[2]; direct titration of fluorescent nucleoside with vcCNT, single-site model, mean ± SEM, read-out: KD
  Kd: 24 µM and 23.5 µM
[2]; vcCNT
  decrease of KD relative to gemcitabine: ~60 fold
[3]
  transport by hCNT2: transported neither compound
[4]; 400 μM nucleoside, hCNT1 (353V/424L)-expressing Xenopus oocytes
  Total charge transported, Mean: 0.255 μC
[4]; ratio of total charge, 400 μM each, hCNT1 (353V/424L)
  Qpyr-gem/Qgem, Mean: 0.385
[5]; 400 μM nucleoside, hCNT3 (375L/446V)-expressing Xenopus oocytes
  Total charge transported, Mean: 4.864 μC
[5]; ratio of total charge, 400 μM each, hCNT3 (375L/446V)
  Qgem/Qpyr-gem, Mean: 1.287
